Test results published in patent US20100075965A1, “PI3 KINASE INHIBITORS AND METHODS OF THEIR USE” (Novartis AG, priority 2006, published 2010).
Like-named read-outs stand apart in the source and are kept apart here.

Legend:
A2780 cells = assay: Viability assay in A2780 (Cell Titer Glo); type: cell-based, human; conditions: A2780 cells, read-out: A2780 Cell prolif. EC50
Procedure: Cell viability was assessed with Cell Titer Glo assay, Promega. Cells were seeded in TC treated 96-well plates at a density of 1,000 (A2780 cells) per well in DMEM with 10% FBS, 1% Sodium Pyruvate, and 1% Penicillin Streptomycin for a minimum of 2 hrs prior to addition of compound. Test compounds were serially diluted (3 fold) in DMSO to 500× the final concentration. For each concentration of test compound, 2 μL (500×) aliquots of compound or 100% DMSO (control) were diluted in 500 μL of culture medium to 2× final concentration then diluted 1× on the cells. Cells were incubated for 72 hrs at 37° C., 5% CO2. After which Cell Titer Glo is added to determine viable cells, the assay was performed according to the manufacturer's instruction (Promega Corporation, Madison, Wis. USA). Each experimental condition was performed in duplicate. Raw data was imported in Abase and EC50s calculated with XL-fit data analysis software and are shown in Tables 1 and 2 in the column labeled “A2780 Cell prolif. EC50”.

PI3 K Alpha = PI3 K Alpha (Homo sapiens, UniProt P42336); assay: PI3 kinase phosphorylation assays (homogenous solution phase, one step solid phase, ATP depletion/KinaseGlo); type: biochemical
Chain of PI3 K Alpha (P42336 whole entry): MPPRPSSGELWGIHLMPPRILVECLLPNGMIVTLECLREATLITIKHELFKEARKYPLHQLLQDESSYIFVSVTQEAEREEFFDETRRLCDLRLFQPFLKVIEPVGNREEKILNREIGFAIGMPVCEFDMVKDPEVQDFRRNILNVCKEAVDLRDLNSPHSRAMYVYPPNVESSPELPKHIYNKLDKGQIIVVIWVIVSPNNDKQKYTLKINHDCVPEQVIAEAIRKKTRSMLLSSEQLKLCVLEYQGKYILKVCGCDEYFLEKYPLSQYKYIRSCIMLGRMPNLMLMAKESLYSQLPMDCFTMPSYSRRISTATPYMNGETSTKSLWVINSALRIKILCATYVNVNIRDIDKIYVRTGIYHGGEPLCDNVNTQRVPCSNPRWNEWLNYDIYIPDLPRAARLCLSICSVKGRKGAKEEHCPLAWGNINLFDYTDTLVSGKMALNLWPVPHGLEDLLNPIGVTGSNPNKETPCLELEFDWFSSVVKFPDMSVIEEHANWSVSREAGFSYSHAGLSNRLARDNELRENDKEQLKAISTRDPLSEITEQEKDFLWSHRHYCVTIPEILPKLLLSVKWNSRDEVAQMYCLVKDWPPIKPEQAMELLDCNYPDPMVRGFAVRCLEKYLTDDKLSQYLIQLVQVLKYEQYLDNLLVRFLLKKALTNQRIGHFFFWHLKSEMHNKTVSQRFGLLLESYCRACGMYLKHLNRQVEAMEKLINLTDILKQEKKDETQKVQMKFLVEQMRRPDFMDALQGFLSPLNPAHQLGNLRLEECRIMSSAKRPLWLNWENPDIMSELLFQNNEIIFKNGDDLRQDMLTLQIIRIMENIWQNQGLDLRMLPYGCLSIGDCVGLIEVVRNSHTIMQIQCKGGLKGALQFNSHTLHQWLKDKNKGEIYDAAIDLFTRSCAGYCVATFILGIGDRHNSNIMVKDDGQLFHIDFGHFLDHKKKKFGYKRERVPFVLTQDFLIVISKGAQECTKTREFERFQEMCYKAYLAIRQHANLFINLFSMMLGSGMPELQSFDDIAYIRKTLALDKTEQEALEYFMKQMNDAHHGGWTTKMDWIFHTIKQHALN
Chain of PI3 K Alpha (P27986 whole entry partner): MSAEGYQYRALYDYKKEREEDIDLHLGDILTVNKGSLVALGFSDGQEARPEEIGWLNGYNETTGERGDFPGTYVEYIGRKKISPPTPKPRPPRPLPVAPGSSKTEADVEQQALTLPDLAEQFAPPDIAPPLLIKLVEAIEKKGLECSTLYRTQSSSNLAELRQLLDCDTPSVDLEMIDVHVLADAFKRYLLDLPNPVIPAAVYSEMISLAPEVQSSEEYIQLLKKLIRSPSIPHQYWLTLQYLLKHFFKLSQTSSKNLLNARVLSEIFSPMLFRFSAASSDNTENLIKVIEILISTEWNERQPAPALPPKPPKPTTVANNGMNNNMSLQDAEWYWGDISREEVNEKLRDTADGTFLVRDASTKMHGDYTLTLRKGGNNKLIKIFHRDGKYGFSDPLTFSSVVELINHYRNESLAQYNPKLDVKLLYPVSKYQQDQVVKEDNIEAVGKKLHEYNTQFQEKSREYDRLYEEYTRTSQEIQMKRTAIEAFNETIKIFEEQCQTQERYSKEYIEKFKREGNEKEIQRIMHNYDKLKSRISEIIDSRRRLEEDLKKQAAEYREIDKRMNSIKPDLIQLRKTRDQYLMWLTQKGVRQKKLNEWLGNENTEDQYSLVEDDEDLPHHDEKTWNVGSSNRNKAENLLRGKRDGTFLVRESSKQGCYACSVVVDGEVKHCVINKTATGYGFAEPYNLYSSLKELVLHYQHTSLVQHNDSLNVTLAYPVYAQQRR
Procedure: Compounds to be tested are dissolved in DMSO and directly distributed into 384-well flashplates at 1.25 μL per well. To start the reaction, 20 μL of 6 nM PI3 kinase are added into each well followed by 20 μL of 400 nM ATP containing a trace of radiolabeled ATP and 900 nM 1-alpha-phosphatidylinositol (PI). The plates are briefly centrifuged to remove any air gap. The reaction is performed for 15 minutes and then stopped by the addition of 20 μL of 100 mM EDTA. The stopped reaction is incubated overnight at RT to allow the lipid substrate to bind by hydrophobic interaction to the surface of the flashplate. The liquid in the wells is then washed away, and the labeled substrate is detected with scintillation counting.
This method is similar to Assay 1 except that the lipid substrate (1-alpha-phosphatidylinositol (PI)) is first dissolved in a coating buffer and incubated on flashplate at room temperature overnight to allow the lipid substrate to bind by hydrophobic interaction to the surface of the flashplate. Unbound substrate is then washed away. On the day of assay, 20 μL of 6 nM PI3 kinase are added into each well followed by 20 μL of 400 nM ATP containing trace of radiolabeled ATP. Compounds are added together with enzyme and ATP to the lipid-coated plates. The plates are briefly centrifuged to remove any air gap. The reaction is performed for two to three hours. The reaction is stopped by addition of 20 μL of 100 mM EDTA or by immediate plate washing. Phosphorylated lipid substrate is detected by scintillation counting.
Compounds to be tested are dissolved in DMSO and directly distributed into a black 384-well plate at 1.25 μL per well. To start the reaction, 25 μL of 10 nM PI3 kinase and 5 μg/mL 1-alpha-phosphatidylinositol (PI) are added into each well followed by 25 μL of 2 μM ATP. The reaction is performed until approx 50% of the ATP is depleted, and then stopped by the addition of 25 μL of KinaseGlo solution. The stopped reaction is incubated for 5 minutes and the remaining ATP is then detected via luminescence.

[1] = ATP depletion assay, read-out: PI3 K Alpha IC50

EC50 (A2780 cells; Homo sapiens) | IC50 (PI3 K Alpha; read-out: PI3K Alpha IC50) | Structure (SMILES) | other results
 |  | CC(=O)Nc1nc2ccc(-c3cnc(N)nc3C(F)(F)F)cc2s1 [Example 2-13, N-[6-(2-Amino-4-trifluoromethyl-pyrimidin-5-yl)-benzothiazol-2-yl]-acetamide] | EC50 (A2780 cells; Homo sapiens, 72 hrs): < 25 µM; IC50 (PI3 K Alpha; [1]): < 1 µM
 |  | CC(=O)Nc1nc2cc(C)c(-c3cnc(N)c(C(F)(F)F)c3)cc2s1 [Example 2-28, N-[6-(6-Amino-5-trifluoromethyl-pyridin-3-yl)-5-methyl-benzothiazol-2-yl]-acetamide] | EC50 (A2780 cells; Homo sapiens, 72 hrs): < 25 µM; IC50 (PI3 K Alpha; [1]): < 1 µM
 |  | CC(=O)Nc1nc2cc(F)c(-c3cnc(N)c(C(F)(F)F)c3)cc2s1 [Example 2-29, N-[6-(6-Amino-5-trifluoromethyl-pyridin-3-yl)-5-fluoro-benzothiazol-2-yl]-acetamide] | EC50 (A2780 cells; Homo sapiens, 72 hrs): < 25 µM; IC50 (PI3 K Alpha; [1]): < 1 µM
 |  | Nc1ccc(C(=O)Nc2nc3ccc(-c4cnc(N)c(C(F)(F)F)c4)cc3s2)cn1 [Example 2-34, 6-amino-N-(6-(6-amino-5-(trifluoromethyl)pyridin-3-yl)benzo[d]thiazol-2-yl)nicotinamide] | EC50 (A2780 cells; Homo sapiens, 72 hrs): < 1 µM; IC50 (PI3 K Alpha; [1]): < 1 µM
< 25 µM | < 1 µM | CC(=O)Nc1cccc(-c2c(NC(C)=O)nc3ccc(-c4cnc(N)c(C(F)(F)F)c4)cn23)c1 [Example 9, N-[3-(3-Acetylamino-phenyl)-6-(6-amino-5-trifluoromethyl-pyridin-3-yl)-imidazo[1,2-a]pyridin-2-yl]-acetamide] | 
< 25 µM | < 1 µM | CC(=O)Nc1nc2ccc(-c3cnc(N)c(C(F)(F)F)c3)cn2c1-c1cccc(F)c1 [Example 10, N-[6-(6-Amino-5-trifluoromethyl-pyridin-3-yl)-3-(3-fluoro-phenyl)-imidazo[1,2-a]pyridin-2-yl]-acetamide] | 
< 10 µM | < 1 µM | CC(=O)Nc1nc2ccc(-c3cnc(N)c(Br)c3)cn2c1Br [Example 15, N-[6-(6-Amino-5-bromo-pyridin-3-yl)-3-bromo-imidazo[1,2-a]pyridin-2-yl]-acetamide] | 
< 25 µM | < 1 µM | CC(=O)Nc1cn2nc(-c3cnc(N)cc3C(F)(F)F)ccc2n1 [Example 24, N-[6-(6-Amino-4-trifluoromethyl-pyridin-3-yl)-imidazo[1,2-b]pyridazin-2-yl]-acetamide] | 
< 25 µM | < 1 µM | CCCc1c(NC(C)=O)nc2ccc(-c3cnc(N)c(C(F)(F)F)c3)cn12 [Example 31, N-[6-(6-Amino-5-trifluoromethyl-pyridin-3-yl)-3-propyl-imidazo[1,2-a]pyridin-2-yl]-acetamide] | 
< 25 µM | < 25 µM | CNC(=O)[C@@H]1CCN1C(=O)Nc1cn2cc(-c3cnc(N)c(C(F)(F)F)c3)ccc2n1 [Example 36, (S)-N1-(6-(6-amino-5-(trifluoromethyl)pyridin-3-yl)imidazo[1,2-a]pyridin-2-yl)-N2-methylazetidine-1,2-dicarboxamide] | 
< 25 µM | < 25 µM | COc1c(-c2cnc(N)c(C(F)(F)F)c2)ccc2nc(NC(=O)C(F)(F)F)cn12 [Example 37, N-(6-(6-amino-5-(trifluoromethyl)pyridin-3-yl)-5-methoxy-imidazo[1,2-a]pyridin-2-yl)-2,2,2-trifluoroacetamide] | 
< 10 µM | < 25 µM | Nc1ncc(-c2ccc3nc(NC(=O)[C@@H]4CCCN4)cn3c2)cc1C(F)(F)F [Example 38, (S)-N-(6-(6-amino-5-(trifluoromethyl)pyridin-3-yl)imidazo[1,2-a]pyridin-2-yl)pyrrolidine-2-carboxamide] | 
< 25 µM | < 10 µM | CC(=O)Nc1cn2cc(-c3cnc(N)c(OC4CCN(C)CC4)n3)ccc2n1 [Example 40, N-(6-(5-amino-6-(1-methylpiperidin-4-yloxy)pyrazin-2-yl)imidazo[1,2-a]pyridin-2-yl)acetamide] | 
< 25 µM | < 10 µM | Nc1ncc(-c2ccc3nc(NC(=O)C(F)(F)F)cn3c2O)cc1C(F)(F)F [Example 41] | 
< 25 µM | < 10 µM | CCN(CC)CCOc1cc(-c2ccc3nc(NC(C)=O)cn3c2)cnc1N [Example 42, N-(6-(6-amino-5-(2-(diethylamino)ethoxy)pyridin-3-yl)imidazo[1,2-a]pyridin-2-yl)acetamide] | 
 | < 1 µM | COc1ccc(C2CCCN2C(=O)Nc2cn3cc(-c4cnc(N)c(C(F)(F)F)c4)ccc3n2)cc1OC (centres unmarked) [Example 276, N-(6-(6-amino-5-(trifluoromethyl)pyridin-3-yl)imidazo[1,2-a]pyridin-2-yl)-2-(3,4-dimethoxyphenyl) pyrrolidine-1-carboxamide] | 
 | < 1 µM | COc1ccccc1C1CCCN1C(=O)Nc1cn2cc(-c3cnc(N)c(C(F)(F)F)c3)ccc2n1 (centres unmarked) [Example 277, N-(6-(6-amino-5-(trifluoromethyl)pyridin-3-yl)imidazo[1,2-a]pyridin-2-yl)-2-(2-methoxyphenyl) pyrrolidine-1-carboxamide] | 
< 25 µM |  | CC(C)C(=O)Nc1cn2cc(-c3cnc(N)c(C(F)(F)F)c3)ccc2n1 [Example 278, N-(6-(6-amino-5-(trifluoromethyl)pyridin-3-yl)imidazo[1,2-a]pyridin-2-yl)isobutyramide] | 
 |  | CC(C)(C)OC(=O)N1CCC1C(=O)Nc1cn2nc(-c3cnc(N)c(C(F)(F)F)c3)ccc2n1 (centres unmarked) [Example 279, tert-butyl 2-(6-(6-amino-5-(trifluoromethyl)pyridin-3-yl)imidazo[1,2-b]pyridazin-2-ylcarbamoyl) azetidine-1-carboxylate] | EC50 (A2780 cells): < 25 µM
< 25 µM |  | CC(=O)Nc1cn2cc(-c3cnc(N)c(OC4CCNCC4)n3)ccc2n1 [Example 280, N-(6-(5-amino-6-(piperidin-4-yloxy)pyrazin-2-yl)imidazo[1,2-a]pyridin-2-yl)acetamide] | 
< 25 µM |  | CNC(=O)[C@@H]1CCCN1C(=O)Nc1cn2cc(-c3cnc(N)c(C(F)(F)F)c3)ccc2n1 [Example 281, (S)-N1-(6-(6-amino-5-(trifluoromethyl)pyridin-3-yl)imidazo[1,2-a]pyridin-2-yl)-N2-methylpyrrolidine-1,2-dicarboxamide] | 
< 25 µM |  | CC(=O)N1CCCC[C@H]1C(=O)Nc1cn2cc(-c3cnc(N)c(C(F)(F)F)c3)ccc2n1 [Example 282, (S)-1-acetyl-N-(6-(6-amino-5-(trifluoromethyl)pyridin-3-yl)imidazo[1,2-a]pyridin-2-yl)piperidine-2-carboxamide] | 
< 10 µM |  | CC(=O)Nc1cn2nc(-c3cnc(N)c(OCC(F)(F)F)n3)ccc2n1 [Example 284, N-(6-(5-amino-6-(2,2,2-trifluoroethoxy)pyrazin-2-yl)imidazo[1,2-b]pyridazin-2-yl)acetamide] | 
< 10 µM |  | NC(=O)[C@@H]1CCCN1C(=O)Nc1cn2cc(-c3cnc(N)c(C(F)(F)F)c3)ccc2n1 [Example 285, (S)-N1-(6-(6-amino-5-(trifluoromethyl)pyridin-3-yl)imidazo[1,2-a]pyridin-2-yl)pyrrolidine-1,2-dicarboxamide] | 
< 10 µM |  | CCN1CCC(Oc2nc(-c3ccc4nc(NC(C)=O)cn4c3)cnc2N)CC1 [Example 286, N-(6-(5-amino-6-(1-ethylpiperidin-4-yloxy)pyrazin-2-yl)imidazo[1,2-a]pyridin-2-yl)acetamide] | 
< 10 µM |  | COCCOc1nc(-c2ccc3nc(NC(C)=O)cn3n2)cnc1N [Example 287, N-(6-(5-amino-6-(2-methoxyethoxy)pyrazin-2-yl)imidazo[1,2-b]pyridazin-2-yl)acetamide] | 
